The source of these data is patent US6004994A, “Heterocyclic diarylmethylene derivatives, methods of preparing them and their uses in therapeutics” (Laboratoires UPSA, priority 1998, dated 1999).

The target of one assay is T1, COX-2 (Ovis aries, UniProt P79208).
T1 construct: purified enzyme from ewe placenta; from tissue; host or cells: ewe placenta
T1 sequence (P79208 17-603): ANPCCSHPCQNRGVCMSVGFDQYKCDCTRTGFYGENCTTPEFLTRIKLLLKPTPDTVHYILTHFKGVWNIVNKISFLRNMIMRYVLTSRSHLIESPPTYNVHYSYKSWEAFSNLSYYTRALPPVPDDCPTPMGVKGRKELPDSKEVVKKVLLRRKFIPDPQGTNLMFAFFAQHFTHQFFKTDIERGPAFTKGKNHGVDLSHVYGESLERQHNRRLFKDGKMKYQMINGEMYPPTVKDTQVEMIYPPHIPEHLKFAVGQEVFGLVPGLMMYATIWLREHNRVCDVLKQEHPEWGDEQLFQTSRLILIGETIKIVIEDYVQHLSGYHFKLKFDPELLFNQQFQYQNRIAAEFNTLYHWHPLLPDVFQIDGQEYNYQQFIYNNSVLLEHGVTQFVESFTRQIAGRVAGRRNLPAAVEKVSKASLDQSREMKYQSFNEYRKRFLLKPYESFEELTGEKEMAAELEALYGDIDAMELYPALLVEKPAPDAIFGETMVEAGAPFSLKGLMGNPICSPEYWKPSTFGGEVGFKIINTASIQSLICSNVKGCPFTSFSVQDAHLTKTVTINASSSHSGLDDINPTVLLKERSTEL
Kind of assay: Inhibition of COX-2 enzymatic activity (PGE2 produced determined by EIA). The note with it: ewe placenta COX-2, arachidonic acid 4 μM; for inhibition at 10 µM: 10^-5 M; for IC50: n=1 to 4 determinations; for inhibition at 1 µM: at 10^-6 M. It counts as biochemical, ewe (purified enzyme from ewe placenta). The method, then:
(§1) The molecule studied is preincubated for 10 minutes at 25° C. with 2 U of COX-1 (purified enzyme from ram seminal vesicles) or 1 U of COX-2 (purified enzyme from ewe placenta). Arachidonic acid (6 μM for COX-1, 4 μM for COX-2) is added to the reaction medium and incubation is carried out for 5 minutes at 25° C. When incubation has ended, the enzymatic reaction is stopped by the addition of 1 N HCl and the PGE2 produced is deter mined by EIA. […] For other examples, the results are expressed in the form of IC50, the concentration in μM corresponding to 50% inhibition of the maximal enzymatic activity upon COX-1 and COX-2 (n=1 to 4 determinations).

The next assay concerns the target T2, COX-1 (Ovis aries, UniProt P05979).
T2 construct: purified enzyme from ram seminal vesicles; from tissue; host or cells: ram seminal vesicles
T2 sequence (P05979 25-600): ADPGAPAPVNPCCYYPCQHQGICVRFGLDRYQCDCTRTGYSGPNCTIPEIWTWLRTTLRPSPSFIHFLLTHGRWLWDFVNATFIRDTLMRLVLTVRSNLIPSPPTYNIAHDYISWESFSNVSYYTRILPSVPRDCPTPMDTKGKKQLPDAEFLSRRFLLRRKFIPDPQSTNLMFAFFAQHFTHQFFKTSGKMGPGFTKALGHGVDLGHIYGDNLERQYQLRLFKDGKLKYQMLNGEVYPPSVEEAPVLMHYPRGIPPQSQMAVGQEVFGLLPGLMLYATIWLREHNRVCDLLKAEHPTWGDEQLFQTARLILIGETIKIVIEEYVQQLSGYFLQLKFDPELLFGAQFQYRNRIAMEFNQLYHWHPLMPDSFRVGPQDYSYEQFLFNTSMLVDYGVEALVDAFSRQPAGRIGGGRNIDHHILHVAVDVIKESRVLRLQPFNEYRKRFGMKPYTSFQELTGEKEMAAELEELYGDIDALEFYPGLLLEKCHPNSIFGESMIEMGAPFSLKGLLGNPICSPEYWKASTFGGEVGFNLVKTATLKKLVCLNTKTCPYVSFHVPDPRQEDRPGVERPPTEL
Kind of assay: Inhibition of COX-1 enzymatic activity (PGE2 produced determined by EIA). The assay is classed as biochemical, ram (purified enzyme from ram seminal vesicles). The settings on record: 10^-4 M; ram seminal vesicle COX-1, arachidonic acid 6 μM. The method, then:
as §1

The next assay concerns arthritis with kaolin. The assay can be described thus: Analgesic activity: arthritis with kaolin in rats. It counts as in vivo. The settings on record: rat, oral, thirty minutes after intra-articular kaolin; dose inducing 50% decrease of the maximal quotations of control. The method, then: The analgesic activity of the compounds of the Examples was evaluated according to the method of arthritis with kaolin.
The analgesic activity is evaluated in rats by the test of arthritis with kaolin. Thirty minutes after intra-articular administration of an aqueous 10% suspension of kaolin, the product is administered orally at a rate of 1 ml 100 g (n=10 animals per dose). The results are expressed in the form of ED50, the dose in mg/kg which induces 50% decrease of the maximal quotations obtained in the control batch, calculated by linear regression.

`Cc1cc(/C(=C2/CCN(C)C2=O)c2ccc(S(C)(=O)=O)cc2)ccc1F` [56 Z isomer] displayed an inhibition at 10 µM against COX-2 of 53%.
Take `CS(=O)(=O)c1ccc(/C(=C2\N=C(c3ccccc3)OC2=O)c2ccc(Cl)cc2)cc1` [77 E isomer]: on COX-1, the inhibition at 100 µM was found to be 90%. At COX-2, this compound registered an inhibition at 10 µM of 77% and a half-maximal inhibitory concentration (IC50) of 2830 nM.
At COX-2, `CS(=O)(=O)c1ccc(C(=C2CCN(Cc3ccccc3)C2=O)c2ccc(Cl)c(Cl)c2)cc1` [61 Z isomer] displayed an inhibition at 1 µM of 80% and an IC50 of 229 nM.
As for `COc1ccc(/C(=C2/CCN(C)C2=O)c2ccc(S(C)(=O)=O)cc2)cc1` [55 E isomer], 10 µM produced 44% inhibition against COX-2.
Turning to `CCN1CC/C(=C(/c2ccc(Cl)cc2)c2ccc(S(C)(=O)=O)cc2)C1=O` [32 Z isomer], 100 µM produced 13% inhibition at COX-1. On COX-2, this compound yielded an inhibition at 10 µM of 84% and an IC50 of 2530 nM.
For the compound `CN1CC/C(=C(\c2ccc(S(C)(=O)=O)cc2)c2ccc(Cl)c(Cl)c2)C1=O` [53 Z isomer], the inhibition at 100 µM at COX-1 turned out to be 36%. In addition, testing at 10 µM on COX-2 gave an inhibition of 92%.
Turning to `CN1CC/C(=C(\c2ccc(S(N)(=O)=O)cc2)c2ccc(Cl)c(Cl)c2)C1=O` [33 Z isomer], on COX-2, testing at 1 µM gave an inhibition of 70% and the midpoint of inhibition, the IC50, lay at 393 nM.
Take `CS(=O)(=O)c1ccc(C(=C2CCN(Cc3ccccc3Cl)C2=O)c2ccc(Cl)cc2)cc1` [63 Z isomer]: 100 µM produced 83% inhibition at COX-1. At COX-2, the inhibition at 10 µM is 88%.
Regarding `CN1CC/C(=C(/c2ccc(Cl)cc2)c2ccc(S(C)(=O)=O)cc2)C1=O` [28 Z isomer], the inhibition at 100 µM against COX-1 is 6%. Further, on COX-2, the inhibition at 10 µM stood at 77% and the IC50 came to 2940 nM.
As to `CS(=O)(=O)c1ccc(/C(=C2\CCSC2=O)c2ccc(Cl)cc2)cc1` [80 Z isomer], in the assay on arthritis with kaolin, it took a dose of 13.7 mg/kg to reach the 50% effect level (ED50). In addition, at COX-2, half-maximal inhibition (IC50) required 120 nM.
`CC(=O)OCCN1CC/C(=C(/c2ccc(Cl)cc2)c2ccc(S(C)(=O)=O)cc2)C1=O` [30 Z isomer] had an inhibition at 10 µM at COX-2 of 56%.
Same read-out and setting: in the case of `Cc1cccc(CN2CCC(=C(c3ccc(Cl)cc3)c3ccc(S(C)(=O)=O)cc3)C2=O)c1` [64 Z isomer] it was 59%.
The same measure, in the same setting: in the case of `CS(=O)(=O)c1ccc(C(=C2CCN(Cc3ccc(Br)cc3)C2=O)c2ccc(Cl)cc2)cc1` [65 Z isomer] it was 83%.
With `CS(=O)(=O)c1ccc(/C(=C2\SC(=S)NC2=O)c2ccc(Cl)cc2)cc1` [78 E isomer], the inhibition at 100 µM at COX-1 stood at 37%. At COX-2, the inhibition at 10 µM was found to be 72% and the IC50 was found to be 1540 nM.
`CS(=O)(=O)c1ccc(C(=C2CCN(Cc3cccc(Cl)c3)C2=O)c2ccc(Cl)cc2)cc1` [62 Z isomer]: at COX-1, at 100 µM the inhibition was 79%. This compound also yielded an inhibition at 10 µM on COX-2 of 91%.
Compound `CS(=O)(=O)c1ccc(/C(=C2\CCN(Cc3ccccc3)C2=O)c2ccc(Cl)cc2)cc1` [31 Z isomer] returned an ED50 in the assay with arthritis with kaolin of 18.5 mg/kg. In addition, the inhibition at 100 µM at COX-1 is 88%. The compound also returned an inhibition at 10 µM against COX-2 of 88%.
With `CS(=O)(=O)c1ccc(C(=C2CCN(CCc3ccccc3)C2=O)c2ccc(Cl)cc2)cc1` [60 Z isomer], 100 µM produced 32% inhibition at COX-1. The same compound returned an inhibition at 1 µM against COX-2 of 52%.
`CS(=O)(=O)c1ccc(/C(=C2\CCN(C3CCCCC3)C2=O)c2ccc(Cl)cc2)cc1` [29 Z isomer] showed an inhibition at 100 µM on COX-1 of 72%. Besides, on COX-2, 10 µM produced 86% inhibition.

One may read the inhibition as the relative decrease from the control value, in per cent. As usually defined, the IC50 is the concentration at which inhibition is half-maximal. High values mean a need for much substance, low ones inhibition by little substance. The ED50 is the dose that gives a 50% effect, or the effect in half of the subjects. A high value points to a need for a large dose.
